Active and inactive are the calls of the source. The calls are words filed in the database; no cut-off is given here.

The subject of the first experiment is Streptomyces viridochromogenes. Nature of the experiment: Antimicrobial activity against Streptomyces viridochromogenes Tue57 at 40 ug/disc by agar diffusion method. In kind it is functional, organism-based. (A growth-free zone around the sample is the usual read-out of agar diffusion tests.)
Regarding `COc1cc(C2=N[C@H]([C@@H]3SC[C@H]4[C@@H]5SC[C@](C)(C(=O)N43)N5C)CS2)c(O)c2ccccc12`, the result was inactive.

On to `COc1cc(-c2nc(CO)cs2)c(O)c2ccccc12`, for which the result was inactive.

Regarding `COc1cc(C2=N[C@H](CO)CS2)c(O)c2ccccc12`, the outcome was inactive.

The subject of the next experiment is Escherichia coli. As to the kind of experiment: Antimicrobial activity against Escherichia coli at 40 ug/disc by agar diffusion method. It is filed as functional, organism-based.
`COc1cc(C2=N[C@H]([C@@H]3SC[C@H]4[C@@H]5SC[C@](C)(C(=O)N43)N5C)CS2)c(O)c2ccccc12`: the outcome was inactive.

In the case of `COc1cc(-c2nc(CO)cs2)c(O)c2ccccc12`, the outcome was inactive.

`COc1cc(C2=N[C@H](CO)CS2)c(O)c2ccccc12`: the result was inactive.

In a further experiment the test system is Chlorella sorokiniana. As to the kind of experiment: Antimicrobial activity against Chlorella sorokiniana at 40 ug/disc by agar diffusion method. It is filed as functional, organism-based.
Turning to `COc1cc(C2=N[C@H]([C@@H]3SC[C@H]4[C@@H]5SC[C@](C)(C(=O)N43)N5C)CS2)c(O)c2ccccc12`, the result was inactive.

Consider `COc1cc(-c2nc(CO)cs2)c(O)c2ccccc12`, for which the outcome was inactive.

For the compound `COc1cc(C2=N[C@H](CO)CS2)c(O)c2ccccc12`, the outcome was inactive.

The subject of a further experiment is Desmodesmus subspicatus. As to the kind of experiment: Antimicrobial activity against Scenedesmus subspicatus at 40 ug/disc by agar diffusion method. It is filed as functional, organism-based.
For the compound `COc1cc(C2=N[C@H]([C@@H]3SC[C@H]4[C@@H]5SC[C@](C)(C(=O)N43)N5C)CS2)c(O)c2ccccc12`, the outcome was inactive.

Regarding `COc1cc(-c2nc(CO)cs2)c(O)c2ccccc12`, the result was inactive.

Take `COc1cc(C2=N[C@H](CO)CS2)c(O)c2ccccc12`: the result was inactive.

Another experiment deals with Bacillus subtilis. Nature of the experiment: Antimicrobial activity against Bacillus subtilis ATCC 6051 at 40 ug/disc by agar diffusion method. In kind it is functional, organism-based.
As to `COc1cc(C2=N[C@H]([C@@H]3SC[C@H]4[C@@H]5SC[C@](C)(C(=O)N43)N5C)CS2)c(O)c2ccccc12`, the result was inactive.

As for `COc1cc(-c2nc(CO)cs2)c(O)c2ccccc12`, the outcome was inactive.

For `COc1cc(C2=N[C@H](CO)CS2)c(O)c2ccccc12`, the outcome was inactive.

Another experiment has as its system Rhizomucor miehei. Nature of the experiment: Antimicrobial activity against Mucor miehei Tu 284 at 40 ug/disc by agar diffusion method. In kind it is functional, organism-based.
In the case of `COc1cc(C2=N[C@H]([C@@H]3SC[C@H]4[C@@H]5SC[C@](C)(C(=O)N43)N5C)CS2)c(O)c2ccccc12`, the result was inactive.

As to `COc1cc(-c2nc(CO)cs2)c(O)c2ccccc12`, the result was inactive.

Regarding `COc1cc(C2=N[C@H](CO)CS2)c(O)c2ccccc12`, the result was inactive.

The test system of the next experiment is Staphylococcus aureus. As to the kind of experiment: Antimicrobial activity against Staphylococcus aureus at 40 ug/disc by agar diffusion method. It is filed as functional, organism-based.
With `COc1cc(C2=N[C@H]([C@@H]3SC[C@H]4[C@@H]5SC[C@](C)(C(=O)N43)N5C)CS2)c(O)c2ccccc12`, the outcome was inactive.

On to `COc1cc(-c2nc(CO)cs2)c(O)c2ccccc12`, for which the outcome was inactive.

Consider `COc1cc(C2=N[C@H](CO)CS2)c(O)c2ccccc12`, for which the outcome was inactive.

The next experiment deals with Candida albicans. Nature of the experiment: Antimicrobial activity against Candida albicans at 40 ug/disc by agar diffusion method. In kind it is functional, organism-based.
Take `COc1cc(C2=N[C@H]([C@@H]3SC[C@H]4[C@@H]5SC[C@](C)(C(=O)N43)N5C)CS2)c(O)c2ccccc12`: the result was inactive.

With `COc1cc(-c2nc(CO)cs2)c(O)c2ccccc12`, the outcome was inactive.

Turning to `COc1cc(C2=N[C@H](CO)CS2)c(O)c2ccccc12`, the outcome was inactive.

The subject of a further experiment is Chlorella vulgaris. Nature of the experiment: Antimicrobial activity against Chlorella vulgaris at 40 ug/disc by agar diffusion method. It is filed as functional, organism-based.
With `COc1cc(C2=N[C@H]([C@@H]3SC[C@H]4[C@@H]5SC[C@](C)(C(=O)N43)N5C)CS2)c(O)c2ccccc12`, the outcome was inactive.

Consider `COc1cc(-c2nc(CO)cs2)c(O)c2ccccc12`, for which the result was inactive.

For the compound `COc1cc(C2=N[C@H](CO)CS2)c(O)c2ccccc12`, the outcome was inactive.

(Values after ChEMBL document CHEMBL4480461, “Karamomycins A-C: 2-Naphthalen-2-yl-thiazoles from Nonomuraea endophytica” (J Nat Prod, 2019).)
